In patent US11344601B2, “Tumor microenvironment-related target TAK1 and application thereof in inhibition of tumor” (Shanghai Institutes for Biological Sciences, Chinese …, priority 2017, dated 2022):
Where “and” joins values, the source holds several entries; their conditions need not be identical. Equal entries are not always repeated.

Assays:
mTOR = target: T1, mTOR (Homo sapiens, UniProt P42345+P62942); test: Western blot of Akt/mTOR pathway activation in bleomycin-treated stromal cells; type: cell-based
T1 construct: endogenous in cells; host or cells: PSC27 human prostate stromal cells
Method: (§1) The nitrocellulose filter membrane was blocked at room temperature for 1 h in the blocking solution (TBST containing 5% skim milk powder (0.1% Tween-20 in TBS)), incubated overnight at 4° C. in a primary antibody solution, rinsed at TBST room temperature for 3 times, each for 2 min. The corresponding secondary antibody conjugated with HRP prepared with the blocking solution was added, the filter membrane was incubated at room temperature for 0.5 h. The filter membrane was rinsed with PBST at room temperature for 3 times, each for 2 min.

IL-8 = IL-8 protein expression of damaged stromal cells (Western blot, ELISA); type: cell-based, human; details: ELISA of extracellular fluid, bleomycin plus inhibitor
Method: FIG. 15. The stromal cells were collected on Day 7 after bleomycin and/or 5Z-7 treatment. The lysates were analyzed by Western blot for their phosphorylation levels of ATM and TAK1, and activation of TAK1 downstream substrate JN K and p38. IL-8, a chemokine was used as a marker secreted factor of SASP, whose expression level was simultaneously analyzed. FIG. 33. The extracellular fluid released by each group of cells were tested by ELISA to determine the protein expression level of the secreted factor IL-8.

NF-κB complex = test: NF-κB activation in bleomycin-treated stromal cells (nuclear translocation, luciferase reporter); type: cell-based, human; details: for NF-κB transcriptional activity (reporter vector): bleomycin plus inhibitor, luciferase reporter
Method: FIG. 22. The stromal cells pre-transduced with the NF-κB transcriptional luciferase reporter vector were treated with bleomycin and/or RAD001. The cells were collected on Day 7 and detected for the fluorescence signal intensity of the reporter vector.
FIG. 32. Detection of NF-kB transcriptional activity based on the reporter vector. Stromal cells were treated with bleomycin along with the PI3K small molecule inhibitor LY294002 (1 μM), Akt inhibitor MK-2206 (100 nM), mTOR inhibitor RAD001 (50 nM), p38 inhibitor SB203580 (10 μM) and TAK1 inhibitor 5Z-7 (500 nM), respectively, and cell lysates were used for determining luciferase activity.
The […] vector pBABE-puro-IκBα-mut (Super repressor) containing two phosphorylated mutant sites of IKK at S32A and S34A on the IκBα protein encoding sequence were used for transfection of lentivirus-packing cell line phoenix. Lentiviruses were subsequently used to infect PSC27 stromal cell line, whereas 1 μg/ml puromycin was used to screen positive clones. As another method, 5 μm of the small molecule inhibitor Bay11-7082 (purchased from Selleck) was used for NF-κB activity control. Stromal cells were subsequently exposed to several different forms of cytotoxicity, with the resulting phenotype recorded in time, and the relevant gene expression analyzed. The resulted conditioned culture medium produced from cells processed in this way was collected for various detection of epithelial cells.
Even so, is TAK1 activated indirectly by upstream DDR signaling associated with activation of a core transcription factor, NF-κB complex involved in the broad-spectrum expression of the SASP? The NF-κB complex was previously reported to be mediated by mono-ubiquitination of IκB kinase subunit γ (IKKγ) in cytoplasm. After isolating nucleus from cytoplasmic proteins using a kit, the inventor finds that TAK1 phosphorylation is associated with nuclear translocation of p50 and p65, the two main subunits of NF-κB complex (FIG. 4).

PSC27 cells = test: DNA damage response foci, colony formation, cell cycle arrest and SA-β-Gal in PSC27 cells; type: cell-based, human
Method: Experimental Treatment In Vitro • 100 nM docetaxel (DTX), 100 nM paclitaxel (PTX), 200 nM vincristine (VCR), 50 μg/ml bleomycin (BLEO), 1 μM mitoxantrone (MIT), or 10 Gy ^137CS ionizating radiation (γ-radiation at 743 rad/min, RAD) was added to the culture medium when PSC27 cells grown to 80% (PSC27-Pre) to produce cell damage. After drug treatment for 6 hours, the cells were simply washed by PBS for 3 times and kept in the culture medium for 7 to 10 days, followed by subsequent experiments. […] Immunofluorescence and Histochemical Analysis • Mouse monoclonal antibody anti-phospho-Histone H2A.X (Ser139) (clone JBW301, Millipore) or mouse monoclonal antibody anti-Phosphor-53BP1 (Cat #sc-135748, Santa Cruz), and secondary antibody Alexa Fluor® 488 (or 594)-conjugated F(ab′)2 were added sequentially to slides on which cells were fixed. Nuclei were counterstained with 2 μg/ml of 4′,6-diamidino-2-phenylindole (DAPI). The most representative image was selected from the 3 observation fields for data analysis and result presentation. FV1000 laser scanning confocal microscopy (Olympus) was used to obtain cellular confocal fluorescence images to determine the extent of DNA damage. • Antibody anti-TAK1 used for histological IHC staining in clinical prostate, non-small cell lung cancer patients and breast cancer patients, was purchased from Proteintech, idib.

[1] = system: prostate-derived stromal cell line PSC27 and epithelial cancer cell line PC3 xenograft tumors; test: Preclinical chemotherapy trial, subcutaneous PC3/PSC27 tissue-recombinant tumors, terminal tumor volume; type: in vivo, ICR-SCID mice; details: for further decrease in terminal tumor volume: inhibitor combined with mitoxantrone (MIT) vs mitoxantrone alone (group 8 vs group 6); for decrease in terminal tumor volume: mitoxantrone alone vs no drug (group 6 vs group 5)
Method: All experimental mouse experiments were carried out in strict accordance with the relevant regulations of the Institutional animal care and use committee (IACUC) of the shanghai Institute of Life Sciences of the Chinese Academy of Sciences. ICR-SCID mice at an age of about 6 weeks (about 25 g in body weight) were used in this patent-related animal experiment. Stromal cells PSC27 and epithelial cells were mixed at a ratio of 1:4, with each implant containing 1.25×10^6 cells for tissue recombination. The transplant tumor was implanted into mice subcutaneously, and the animals were euthanized at the end of Week 8 after transplantation. The tumor volume was calculated according to the following formula: V=(π/6)×((l+w)/2)^3 (V, volume; l, length; w, width). Similarly, lung and breast cancer xenograft tumors were formed by tissue recombination with A549 (non-small cell lung cancer cell line) and W138 (lung fibroblast line), MDA-MB-231 (triple negative breast cancer cell line) and HBF1203 (breast fibroblast line), respectively.
In the preclinical chemotherapy trial, mice subcutaneously transplanted with tumors were fed standard experimental diet. After 2 weeks, the chemotherapeutics mitoxantrone (dose of 0.2 mg/kg) and/or SASP inhibitors (500 μl, dose of 10 mg/kg, RAD001, SB203580 and 5Z-7 were purchased from Tocris; LYTAK, purchased from Lilly Co ((Indianapolis, Ind.), 5 mg/kg) were administrated intraperitoneally. The timepoint was the first day of Week 3, 5, 7, and the whole course of treatment was composed of three cycles of administration, each cycle lasted for 2 weeks. After the course of treatment, mouse […] was collected for tumor measurement and histological analysis. Each mouse received cumulatively 0.6 mg mitoxantrone/kg body weight and 30 mg SASP inhibitor/kg body (15 mg/kg body weight for LYTAK1). Mice xenografted with lung cancer and breast cancer tumor received bleomycin (totally 0.3 mg/kg) and doxorubicin (totally 0.2 mg/kg), respectively. The timepoints and frequency were same as the administration of mitoxantrone. The chemotherapeutic trial was performed until the end of Week 8, and the mice were dissected immediately after death. The transplant tumors were collected and used for analysis in a pathological system.
In order to simulate clinical conditions as much as possible, the present inventor inoculated the subcutaneous site of immunodeficient mice with an admixture of prostate-derived stromal cell line PSC27 and epithelial cancer cell line PC3. The mice subsequently underwent a regimen of 8-week preclinical chemotherapy, which included three single- or double-drug treatments based on a series of pre-experimental data (FIGS. 64 and 65). In the absence of stromal cells, PC3 cells were still able to form tumors under screening pressure caused by chemotherapeutics, though their volumes were smaller than that generated in the case of concurrent inoculation of stromal cells and cancer cells. Such difference also objectively confirmed the tumor-promoting effect of the microenvironment (FIG. 66).

p38MAPK, JNK, ATM = test: Western blot of JNK, p38MAPK and ATM phosphorylation in damaged stromal cells; type: cell-based, human; details: bleomycin and/or SB203580
Method: as §1

TAK1 = target: T2, TAK1 (Homo sapiens, UniProt O43318); test: IP, in vitro kinase assay and Western blot of TAK1 activation in damaged PSC27 stromal cells; type: cell-based; details: PSC27 cells treated with IL-1α (20 ng/ml)
T2 construct: PSC27 cells were treated with bleomycin and cell lysates were subject to anti-p-TAK1-mediated IP precipitation; endogenous in cells; host or cells: PSC27 human prostate stromal cells
T2 sequence (O43318 1-606): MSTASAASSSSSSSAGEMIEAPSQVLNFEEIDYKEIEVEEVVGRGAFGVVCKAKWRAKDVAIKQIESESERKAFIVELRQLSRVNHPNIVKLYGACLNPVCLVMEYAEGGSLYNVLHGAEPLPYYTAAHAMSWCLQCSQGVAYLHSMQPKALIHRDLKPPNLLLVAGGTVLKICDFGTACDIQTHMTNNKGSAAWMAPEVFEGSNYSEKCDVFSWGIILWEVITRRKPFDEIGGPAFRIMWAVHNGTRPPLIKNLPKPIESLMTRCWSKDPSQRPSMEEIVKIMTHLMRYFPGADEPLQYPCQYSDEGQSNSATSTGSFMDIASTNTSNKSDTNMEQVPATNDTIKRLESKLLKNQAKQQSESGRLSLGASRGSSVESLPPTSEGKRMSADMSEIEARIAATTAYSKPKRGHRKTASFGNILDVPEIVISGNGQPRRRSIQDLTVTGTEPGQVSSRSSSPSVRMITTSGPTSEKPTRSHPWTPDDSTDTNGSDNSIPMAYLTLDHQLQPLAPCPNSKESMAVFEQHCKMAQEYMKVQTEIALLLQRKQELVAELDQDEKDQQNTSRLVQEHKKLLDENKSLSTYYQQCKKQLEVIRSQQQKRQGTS
Method: In the presence of the TAK1 inhibitor 5Z-7, PSC27 cells were treated with bleomycin and cell lysates were subject to anti-p-TAK1-mediated IP precipitation. IP products were analyzed by in vitro kinase assay, and MKK6 was used as TAK1 substrate. p38 phosphorylation was analyzed by Western blot with GAPDH as the loading control. In addition, IL-1α (20 ng/ml) was used to treat stromal cells and was further analyzed by similar IP and in vitro kinase assay.

NC1(c2ccc(-c3nc4ccn5c(=O)[nH]nc5c4cc3-c3ccccc3)cc2)CCC1 [MK-2206]
activity of mTOR (mTOR; simultaneous treatment of bleomycin and MK-2206): significantly downregulated
chemokine IL-8 protein levels induced by DNA damage (IL-8): significantly reduced
NF-κB transcriptional activity (reporter vector) (NF-κB complex): significantly reduced

CO[C@H]1C[C@@H]2CC[C@@H](C)[C@@](O)(O2)C(=O)C(=O)N2CCCC[C@H]2C(=O)O[C@H]([C@H](C)C[C@@H]2CC[C@@H](OCCO)[C@H](OC)C2)CC(=O)[C@H](C)/C=C(\C)[C@@H](O)[C@@H](OC)C(=O)[C@H](C)C[C@H](C)/C=C/C=C/C=C/1C [RAD001]
cell cycle arrest and SA-β-Gal activity (PSC27 cells; bleomycin-damaged stromal cells in the presence of RAD001): remained unaffected
single-cell level of DDR foci (PSC27 cells; bleomycin-treated cells, presence or absence of inhibitor): remained unchanged
activation of mTOR substrates S6K1 and 4E-BP1 (mTOR; bleomycin and/or RAD001, Day 7): inhibition of S6K1 and 4E-BP1 activation
further decrease in terminal tumor volume ([1]; end of Week 8): 44%
phosphorylation of IKKβ, degradation of IRAK1 and IkBα, nuclear translocation of p65 and p50 (NF-κB complex; after DNA damage, RAD001 added to the medium): largely abolished
NF-κB transcriptional activity (reporter vector) (NF-κB complex): significantly attenuated

C[S+]([O-])c1ccc(-c2nc(-c3ccncc3)c(-c3ccc(F)cc3)[nH]2)cc1 (centres unmarked) [SB203580]
chemokine IL-8 protein levels induced by DNA damage (IL-8): significantly reduced
further decrease in terminal tumor volume ([1]; end of Week 8): 46%
NF-κB transcriptional activity (reporter vector) (NF-κB complex): significantly reduced
phosphorylation level of p38 (p38MAPK, JNK, ATM): significantly reduce

O=C1c2c(O)ccc(O)c2C(=O)c2c(NCCNCCO)ccc(NCCNCCO)c21 [mitoxantrone]
decrease in terminal tumor volume ([1]; end of Week 8): 37%
decrease in terminal tumor volume ([1]; end of Week 8, listed as MIT): 37% and 36%

IL-1α: cytokine, known upstream regulatory factor for TAK1
TAK1/MKK6 interaction (TAK1): significantly enhanced
p38 kinase activity (TAK1): significantly increased
